# Results taken from patent publication US6448204B1, “Herbicidal 2-aryloxy-4-methyl-6-pyrazol-1-yl-pyridines” (BASF Aktiengesellschaft, priority 1999, dated 2002).
# Experiments:
# Format in all cases: in vivo
# [1] = tested on: thirteen weed species (broadleaf weeds and grasses); test: Pre-emergence test, summary over all weeds; settings: for Number of weed species well / sufficiently controlled: out of thirteen species
# Experimental: (§1) To evaluate their herbicidal activity, compounds according to the invention are tested using a representative range of plants: […] The pre-emergence tests involve spraying a liquid formulation of the compound onto the soil in which the seeds of the plant species mentioned above has recently been sown. The soil used in the tests is a prepared horticultural loam. […] In these tests untreated sown soil are used as controls.
# [2] = tested on: Ipomoea hederacea (IPOHE); test: Pre-emergence test; settings: 3 weeks after treatment
# Experimental: as §1
# Stellaria media (STEME) = test: Pre-emergence test; settings: 3 weeks after treatment
# Experimental: as §1
# Zea mays (ZEAMX) = test: Pre-emergence test; settings: for Assessment rating ZEAMX (pre-emergence application): crop (corn), 3 weeks after treatment
# Experimental: as §1
# Galium aparine (GALAP) = test: Pre-emergence test; settings: 3 weeks after treatment
# Experimental: as §1
# [3] = tested on: Lolium multiflorum (LOLMU); test: Pre-emergence test; settings: 3 weeks after treatment
# Experimental: as §1
# Setaria viridis (SETVI) = test: Pre-emergence test; settings: 3 weeks after treatment
# Experimental: as §1
# [4] = tested on: Echinochloa crus-galli (ECHCG); test: Pre-emergence test; settings: 3 weeks after treatment
# Experimental: as §1
# [5] = tested on: Abutilon theophrasti (ABUTH); test: Pre-emergence test; settings: 3 weeks after treatment
# Experimental: as §1
# [6] = tested on: Alopecurus myosuroides (ALOMY); test: Pre-emergence test; settings: 3 weeks after treatment
# Experimental: as §1
# [7] = tested on: Matricaria inodora (MATIN); test: Pre-emergence test; settings: 3 weeks after treatment
# Experimental: as §1
# [8] = tested on: Ambrosia artemisifolia (AMBEL); test: Pre-emergence test; settings: 3 weeks after treatment
# Experimental: as §1
# [9] = tested on: Cassia obtusifolia (CASOB); test: Pre-emergence test; settings: 3 weeks after treatment
# Experimental: as §1
smiles,measurement,setting,value
"Cc1cc(Oc2cc(C(F)(F)F)nn2C)nc(-n2ccc(C(F)(F)F)n2)c1 [Example 2, 4-methyl-2-(-3-trifluoromethyl-1H-prazol-1-yl)-6-(1-methyl-3-trifluoromethyl-pyrazol-5-yloxy)-pyridine]","Herbicidal activity, overall judgement",[1],excellent activity on both broadleaf weeds and grasses
same,Rate required to obtain the same level of weed control,[1],0.100 kg/ha
same,Number of weed species well / sufficiently controlled,[1]; 0.100 kg/ha,eleven out of thirteen species
same,Number of weed species well / sufficiently controlled,[1]; 0.400 kg/ha,all of the thirteen weed species
same,Assessment rating IPOHE (pre-emergence application),[2]; 0.013 kg/ha,1 (1 - Trace effect)
same,Assessment rating IPOHE (pre-emergence application),[2]; 0.025 kg/ha,3 (3 - Moderate effect)
same,Assessment rating IPOHE (pre-emergence application),[2]; 0.100 kg/ha,6 (6 - Herbicidal effect)
same,Assessment rating IPOHE (pre-emergence application),[2]; 0.400 kg/ha,9 (9 - Complete kill)
same,Assessment rating STEME (pre-emergence application),Stellaria media (STEME); 0.013 kg/ha,6 (6 - Herbicidal effect)
same,Assessment rating STEME (pre-emergence application),Stellaria media (STEME); 0.025 kg/ha,9 (9 - Complete kill)
same,Assessment rating STEME (pre-emergence application),Stellaria media (STEME); 0.100 kg/ha,9 (9 - Complete kill)
same,Assessment rating STEME (pre-emergence application),Stellaria media (STEME); 0.400 kg/ha,9 (9 - Complete kill)
same,Assessment rating ZEAMX (pre-emergence application),Zea mays (ZEAMX); 0.013 kg/ha,0 (0 - No effect)
same,Assessment rating ZEAMX (pre-emergence application),Zea mays (ZEAMX); 0.025 kg/ha,1 (1 - Trace effect)
same,Assessment rating ZEAMX (pre-emergence application),Zea mays (ZEAMX); 0.100 kg/ha,2 (2 - Slight effect)
same,Assessment rating ZEAMX (pre-emergence application),Zea mays (ZEAMX); 0.400 kg/ha,4 (4 - Injury)
same,Selectivity in maize,"Zea mays (ZEAMX); pre-emergence, 0.100 kg/ha",Good selectivity in maize
same,Assessment rating GALAP (pre-emergence application),Galium aparine (GALAP); 0.013 kg/ha,1 (1 - Trace effect)
same,Assessment rating GALAP (pre-emergence application),Galium aparine (GALAP); 0.025 kg/ha,3 (3 - Moderate effect)
same,Assessment rating GALAP (pre-emergence application),Galium aparine (GALAP); 0.100 kg/ha,6 (6 - Herbicidal effect)
same,Assessment rating GALAP (pre-emergence application),Galium aparine (GALAP); 0.400 kg/ha,8 (8 - Approaching complete kill)
same,Assessment rating LOLMU (pre-emergence application),[3]; 0.013 kg/ha,6 (6 - Herbicidal effect)
same,Assessment rating LOLMU (pre-emergence application),[3]; 0.025 kg/ha,6 (6 - Herbicidal effect)
same,Assessment rating LOLMU (pre-emergence application),[3]; 0.100 kg/ha,8 (8 - Approaching complete kill)
same,Assessment rating LOLMU (pre-emergence application),[3]; 0.400 kg/ha,8 (8 - Approaching complete kill)
same,Assessment rating SETVI (pre-emergence application),Setaria viridis (SETVI); 0.013 kg/ha,9 (9 - Complete kill)
same,Assessment rating SETVI (pre-emergence application),Setaria viridis (SETVI); 0.025 kg/ha,9 (9 - Complete kill)
same,Assessment rating SETVI (pre-emergence application),Setaria viridis (SETVI); 0.100 kg/ha,9 (9 - Complete kill)
same,Assessment rating SETVI (pre-emergence application),Setaria viridis (SETVI); 0.400 kg/ha,9 (9 - Complete kill)
same,Assessment rating ECHCG (pre-emergence application),[4]; 0.013 kg/ha,1 (1 - Trace effect)
same,Assessment rating ECHCG (pre-emergence application),[4]; 0.025 kg/ha,2 (2 - Slight effect)
same,Assessment rating ECHCG (pre-emergence application),[4]; 0.100 kg/ha,8 (8 - Approaching complete kill)
same,Assessment rating ECHCG (pre-emergence application),[4]; 0.400 kg/ha,8 (8 - Approaching complete kill)
same,Assessment rating ABUTH (pre-emergence application),[5]; 0.013 kg/ha,1 (1 - Trace effect)
same,Assessment rating ABUTH (pre-emergence application),[5]; 0.025 kg/ha,3 (3 - Moderate effect)
same,Assessment rating ABUTH (pre-emergence application),[5]; 0.100 kg/ha,8 (8 - Approaching complete kill)
same,Assessment rating ABUTH (pre-emergence application),[5]; 0.400 kg/ha,9 (9 - Complete kill)
same,Assessment rating ALOMY (pre-emergence application),[6]; 0.013 kg/ha,2 (2 - Slight effect)
same,Assessment rating ALOMY (pre-emergence application),[6]; 0.025 kg/ha,5 (5 - Definite injury)
same,Assessment rating ALOMY (pre-emergence application),[6]; 0.100 kg/ha,8 (8 - Approaching complete kill)
same,Assessment rating ALOMY (pre-emergence application),[6]; 0.400 kg/ha,8 (8 - Approaching complete kill)
same,Assessment rating MATIN (pre-emergence application),[7]; 0.013 kg/ha,7 (7 - Good herbicidal effect)
same,Assessment rating MATIN (pre-emergence application),[7]; 0.025 kg/ha,8 (8 - Approaching complete kill)
same,Assessment rating MATIN (pre-emergence application),[7]; 0.100 kg/ha,9 (9 - Complete kill)
same,Assessment rating MATIN (pre-emergence application),[7]; 0.400 kg/ha,9 (9 - Complete kill)
same,Assessment rating AMBEL (pre-emergence application),[8]; 0.013 kg/ha,4 (4 - Injury)
same,Assessment rating AMBEL (pre-emergence application),[8]; 0.025 kg/ha,7 (7 - Good herbicidal effect)
same,Assessment rating AMBEL (pre-emergence application),[8]; 0.100 kg/ha,8 (8 - Approaching complete kill)
same,Assessment rating AMBEL (pre-emergence application),[8]; 0.400 kg/ha,9 (9 - Complete kill)
same,Assessment rating CASOB (pre-emergence application),[9]; 0.013 kg/ha,0 (0 - No effect)
same,Assessment rating CASOB (pre-emergence application),[9]; 0.025 kg/ha,4 (4 - Injury)
